Results on 60 compounds are retold here after US9718790B2, “Triazine derivative and pharmaceutical composition having an analgesic activity comprising the same” (SHIONOGI & CO., LTD., priority 2010, dated 2017).

Structures are written as SMILES.

As usually defined, the IC50 is the midpoint of a concentration-inhibition curve.

human P2X3 receptor, sequence (P56373 whole entry): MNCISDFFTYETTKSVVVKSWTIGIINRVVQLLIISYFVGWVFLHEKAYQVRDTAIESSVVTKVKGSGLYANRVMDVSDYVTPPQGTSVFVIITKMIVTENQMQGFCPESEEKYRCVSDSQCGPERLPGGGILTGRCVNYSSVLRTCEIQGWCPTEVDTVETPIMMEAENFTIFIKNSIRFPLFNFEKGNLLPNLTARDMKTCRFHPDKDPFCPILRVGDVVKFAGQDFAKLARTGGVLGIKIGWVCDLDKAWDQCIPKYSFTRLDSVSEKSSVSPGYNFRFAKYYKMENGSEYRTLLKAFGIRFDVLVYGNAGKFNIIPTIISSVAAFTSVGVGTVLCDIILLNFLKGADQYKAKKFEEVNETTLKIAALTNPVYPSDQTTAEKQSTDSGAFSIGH

One experiment addresses human P2X3 receptor (Homo sapiens (Human), UniProt P56373). The experiment is described as follows: Evaluation of human P2X3 receptor inhibitory activity (Fluo-3 calcium fluorescence, FDSS 3000, ATP stimulation).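 Also: stimulus was 50 nM ATP with fluorescence followed for 3 min, and the response per well was peak post-ATP fluorescence divided by the reading at measurement start.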 In kind it is cell-based. Conditions: C6BU-1 cells stably expressing human P2X3 receptor.
In the case of `CCCc1ccc(/N=c2\[nH]c(=O)n(C[C@H](C)C(=O)OC)c(=O)n2Cc2ccc(C)cc2)cc1C` [Compound I-1210], the IC50 came out at 37 nM.

Regarding `COC(=O)[C@H](C)[C@H](C)n1c(=O)[nH]/c(=N\c2ccc3nc(C)ccc3c2)n(Cc2ccc(Cl)cc2)c1=O` [Compound I-1322], the IC50 was found to be 20 nM.

For `COC(=O)[C@@H](C)Cn1c(=O)[nH]/c(=N\c2ccc(OCCO)cc2)n(Cc2ccc(Cl)cc2)c1=O` [Compound I-0719], the IC50 was determined as 115 nM.

Take `CC1(C)OCC(Cn2c(=O)[nH]/c(=N\c3ccc(OC4CCC4)cc3)n(Cc3ccc(Cl)cc3)c2=O)CO1` [Compound I-1965]: the IC50 was 3 nM.

Turning to `O=c1[nH]/c(=N\c2ccc(Oc3cncc(CO)c3)cc2)n(Cc2ccc(Cl)cc2)c(=O)n1CCO` [Compound I-2079], the IC50 was found to be 38 nM.

As for `Cc1[nH]c2ccc(/N=c3\[nH]c(=O)n(CCC(=O)O)c(=O)n3Cc3ccc(Cl)cc3)cc2c1C` [Compound I-1950], the IC50 is 29 nM.

For the compound `CCOC(=O)CCn1c(=O)[nH]/c(=N\c2ccc(CC(C)C)c(C)c2)n(Cc2ccc(C)cc2)c1=O` [Compound I-1216], the IC50 came out at 13 nM.

Regarding `CCc1oc2ccc(/N=c3\[nH]c(=O)n(C[C@H](C)C(=O)O)c(=O)n3Cc3ccc(Cl)cc3)cc2c1C` [Compound I-1465], the IC50 worked out at 6 nM.

With `Cc1ccc(Oc2ccc(/N=c3\[nH]c(=O)n(CC(N)=O)c(=O)n3Cc3ccc(Cl)cc3)cc2)cn1` [Compound I-1944], the IC50 is 11 nM.

With `COC(=O)[C@@H](C)Cn1c(=O)[nH]/c(=N\c2cnc(Oc3ccccc3)c(Cl)c2)n(Cc2ccc(C)cc2)c1=O` [Compound I-1474], the IC50 is 138 nM.

As to `Cc1cc(/N=c2\[nH]c(=O)n(CCCC(=O)N3CCOCC3)c(=O)n2Cc2ccc(Cl)cc2)ccc1OC(C)C` [Compound I-0787], the IC50 amounted to 24 nM.

As for `COc1cc(/N=c2\[nH]c(=O)n([C@@H](C)[C@@H](C)C(=O)O)c(=O)n2Cc2ccc(Cl)cc2)ccc1CC(C)C` [Compound I-1366], the IC50 turned out to be 20 nM.

Consider `CC(C)Oc1ccc(/N=c2\[nH]c(=O)n(C[C@@H]3COC(C)(C)O3)c(=O)n2Cc2ccc(Cl)cc2)cc1Cl` [Compound I-0614], for which the 50% inhibitory concentration (IC50) came out at 10 nM.

In the case of `Cc1cc(/N=c2\[nH]c(=O)n(Cc3ccc[nH]c3=O)c(=O)n2Cc2ccc(Cl)cc2)ccc1OC(C)C` [Compound I-0725], the IC50 was 14 nM.

For `CCCn1c(=O)[nH]/c(=N\c2ccc(Oc3ccc(C(=O)OC)nc3)cc2)n(Cc2ccc(Cl)cc2)c1=O` [Compound I-2157], the IC50 came to 1 nM.

Regarding `COC(=O)[C@@H](C)Cn1c(=O)[nH]/c(=N\c2ccc3c(c2)CCO3)n(Cc2ccc(Cl)cc2)c1=O` [Compound I-0770], the IC50 came out at 405 nM.

Consider `O=c1[nH]/c(=N\c2ccc3nc(C4CC4)sc3c2)n(Cc2ccc(Cl)cc2)c(=O)n1CCOC1CCCCO1` (stereo not drawn) [Compound I-2024], for which the IC50 amounted to 5 nM.

For `COc1cc(/N=c2\[nH]c(=O)n(CC3COC(C)(C)OC3)c(=O)n2Cc2ccc(Cl)cc2)ccc1OC(C)C` [Compound I-1984], the concentration for half-maximal inhibition (IC50) is 9 nM.

As to `CCn1c(=O)[nH]/c(=N\c2ccc(Oc3nccc(O)n3)cc2)n(Cc2ccc(Cl)cc2)c1=O` [Compound I-2108], the IC50 came to 26 nM.

Consider `CCOC(=O)c1cnc(Oc2ccc(/N=c3\[nH]c(=O)n(CC)c(=O)n3Cc3ccc(Cl)cc3)cc2)s1` [Compound I-2148], for which the half-maximal inhibitory concentration (IC50) amounted to 2 nM.

On to `COC(=O)[C@H](C)[C@H](C)n1c(=O)[nH]/c(=N\c2ccc(OC(C)C)c(C)c2)n(Cc2ccc(Cl)cc2)c1=O` [Compound I-0809], for which the IC50 was found to be 34 nM.

Turning to `CCOC(=O)[C@@H](C)Cn1c(=O)[nH]/c(=N\c2ccc3oc(CO)cc3c2)n(Cc2ccc(Cl)cc2)c1=O` [Compound I-1971], the 50% inhibitory concentration (IC50) is 61 nM.

Consider `O=C(O)c1cccc(Oc2ccc(/N=c3\[nH]c(=O)[nH]c(=O)n3Cc3ccc(Cl)cc3)cc2)c1` [Compound I-1923], for which the IC50 is 84 nM.

Take `CNC(=O)Cn1c(=O)[nH]/c(=N\c2ccc(O[C@H](C)C(F)(F)F)cc2)n(Cc2ccc(Cl)cc2)c1=O` [Compound I-1960]: the half-inhibitory concentration (IC50) was 54 nM.

Take `Cc1ccc(Cn2c(=O)n(C)c(=O)[nH]/c2=N\c2ccc(Oc3ccnc(CO)c3)cc2)cc1` [Compound I-2056]: the half-maximal inhibitory concentration (IC50) turned out to be 26 nM.

Take `Cc1ccc(Cn2c(=O)n(CCC(=O)O)c(=O)[nH]/c2=N\c2ccc(Oc3ccc(C)nc3)cc2)cc1` [Compound I-1356]: the half-inhibitory concentration (IC50) is 48 nM.

For the compound `Cc1oc2ccc(/N=c3\[nH]c(=O)n(CC(CO)CO)c(=O)n3Cc3ccc(Cl)cc3)cc2c1C` [Compound I-2072], the IC50 is 8 nM.

Still in this experiment, the particulars now being: C6BU-1 cells stably expressing human P2X3 receptor, Fluo-3 fluorescence, FDSS 3000.
Consider `COc1ccc2cc(/N=c3\[nH]c(=O)n([C@@H](C)[C@@H](C)C(=O)O)c(=O)n3Cc3ccc(Cl)cc3)ccc2n1` [Compound I-1587], for which the IC50 is 38 nM.

For `Cc1cc(/N=c2\[nH]c(=O)n(CC3COC(C)(C)OC3)c(=O)n2Cc2ccc(Cl)cc2)ccc1OC(C)C` [Compound I-1899], the IC50 was 4 nM.

With `COC(=O)CCn1c(=O)[nH]/c(=N\C2CCC(C)CC2)n(Cc2ccc(C)cc2)c1=O` (stereo not drawn) [Compound I-1759], the IC50 stood at 408 nM.

As to `CC(C)Oc1ccc(/N=c2\[nH]c(=O)n(C[C@H](C)C(=O)O)c(=O)n2Cc2ccc(Cl)cc2)cc1C#N` [Compound I-0960], the IC50 came to 70 nM.

For `C=Cc1ccc(Cn2c(=O)n(C[C@H](C)C(=O)O)c(=O)[nH]/c2=N\c2ccc(OC(C)C)cc2)cc1` [Compound I-1139], the IC50 is 52 nM.

For the compound `CCn1c(=O)[nH]/c(=N\c2ccc(Oc3cc(OC)ncn3)cc2)n(Cc2ccc(Cl)cc2)c1=O` [Compound I-1859], the half-maximal inhibitory concentration (IC50) was determined as 5 nM.

Take `CCc1nc2ccc(/N=c3\[nH]c(=O)n(CCC(=O)NC)c(=O)n3Cc3ccc(Cl)cc3)cc2s1` [Compound I-1738]: the concentration for half-maximal inhibition (IC50) turned out to be 5 nM.

Take `CCc1oc2ccc(/N=c3\[nH]c(=O)n(CCCC(=O)OC)c(=O)n3Cc3ccc(Cl)cc3)cc2c1C` [Compound I-1700]: the half-inhibitory concentration (IC50) turned out to be 12 nM.

In the case of `COC(=O)c1cc(/N=c2\[nH]c(=O)n(CCC(=O)O)c(=O)n2Cc2ccc(C)cc2)cn1C` [Compound I-1879], the half-maximal inhibitory concentration (IC50) came out at 128 nM.

On to `Cc1ccc(Cn2c(=O)n(CCC(N)=O)c(=O)[nH]/c2=N\c2ccc3nc(C)sc3c2)cc1` [Compound I-1671], for which the IC50 was 6 nM.

Take `C[C@@H](Oc1ccc(/N=c2\[nH]c(=O)n(CC(CO)CO)c(=O)n2Cc2ccc(Cl)cc2)cc1)C(F)(F)F` [Compound I-1882]: the half-inhibitory concentration (IC50) turned out to be 16 nM.

The same experiment, now with this note: human P2X3 receptor, Test Example 1.
As to `Cc1ccc(Cn2c(=O)n(C)c(=O)[nH]/c2=N\c2ccc(Oc3cncc(C(N)=O)n3)cc2)cc1` [Compound I-2473], the 50% inhibitory concentration (IC50) came out at 8 nM.

`CCn1c(=O)[nH]/c(=N\c2ccc(Oc3ccnc(NCC(=O)O)c3)cc2)n(Cc2ccc(Cl)cc2)c1=O` [Compound I-2556]: the IC50 came out at 5 nM.

In the case of `O=c1[nH]/c(=N\c2ccc(Oc3nccs3)cc2)n(Cc2ccc(Cl)cc2)c(=O)n1C(CO)CO` [Compound I-2541], the IC50 was 118 nM.

For the compound `CCn1c(=O)[nH]/c(=N\c2ccc(Oc3ccsn3)cc2)n(C[C@H]2CC[C@H](C)CC2)c1=O` [Compound I-2350], the 50% inhibitory concentration (IC50) worked out at 2 nM.

On to `CCn1c(=O)[nH]/c(=N\c2ccc(Oc3cccc(C(=O)O)n3)c(OC)c2)n(Cc2ccc(Cl)cc2)c1=O` [Compound I-2423], for which the IC50 amounted to 7 nM.

Turning to `CCOc1ccc(/N=c2\[nH]c(=O)n(CC(F)(F)C(=O)O)c(=O)n2Cc2ccc(C)cc2)cc1Cl` [Compound I-0858], the IC50 worked out at 22 nM.

Take `CC1(Cn2c(=O)[nH]/c(=N\c3ccc(Oc4ccon4)cc3)n(Cc3ccc(F)cc3)c2=O)COC(C)(C)OC1` [Compound I-2396]: the IC50 stood at 6 nM.

Take `C=COc1ccc(/N=c2\[nH]c(=O)n(C[C@H](C)C(=O)O)c(=O)n2Cc2ccc(C)cc2)cc1Cl` [Compound I-1549]: the 50% inhibitory concentration (IC50) was 8 nM.

In the case of `O=C(O)Cn1c(=O)[nH]/c(=N\c2ccc(Oc3cccc(F)n3)cc2)n(Cc2ccc(Cl)cc2)c1=O` [Compound I-2564], the half-maximal inhibitory concentration (IC50) turned out to be 269 nM.

As for `Cc1nnc(Oc2ccc(/N=c3\[nH]c(=O)n(C)c(=O)n3Cc3ccc(Cl)cc3)cc2)o1` [Compound I-2355], the IC50 was 71 nM.

For the compound `NC(=O)c1ccc(Oc2ccc(/N=c3\[nH]c(=O)n(CCO)c(=O)n3Cc3ccc(Cl)cc3)cc2)cc1` [Compound I-2559], the IC50 came to 8 nM.

As to `CC(C)Oc1ccc(/N=c2\[nH]c(=O)n(C(C)(C)CC(=O)O)c(=O)n2Cc2ccc(Cl)cc2)cc1F` [Compound I-0830], the concentration for half-maximal inhibition (IC50) was 89 nM.

Take `CCn1c(=O)[nH]/c(=N\c2ccc(Oc3ccc(NCC(=O)O)nc3)cc2)n(Cc2ccc(Cl)cc2)c1=O` [Compound I-2622]: the IC50 is 5 nM.

In the case of `CCOC(=O)C1(Cn2c(=O)[nH]/c(=N\c3ccc4nc(C)sc4c3)n(Cc3ccc(C)cc3)c2=O)CC1` [Compound I-1545], the concentration for half-maximal inhibition (IC50) was found to be 3 nM.

As to `COC(=O)CCn1c(=O)[nH]/c(=N\c2ccc(Oc3ncccn3)cc2)n(Cc2ccc(C)cc2)c1=O` [Compound I-2551], the IC50 was determined as 4 nM.

`Cn1c(=O)[nH]/c(=N\c2ccc(Oc3nccc(C(=O)O)n3)cc2)n(Cc2ccc(Cl)cc2)c1=O` [Compound I-2405]: the IC50 was determined as 62 nM.

Take `Cn1c(=O)[nH]/c(=N\c2ccc(Oc3cnc(C(N)=O)cn3)cc2)n(Cc2ccc(Cl)cc2)c1=O` [Compound I-2389]: the IC50 is 10 nM.

`Cn1c(=O)[nH]/c(=N\c2ccc(Oc3cccc(C#N)n3)c(F)c2)n(Cc2ccc(Cl)cc2)c1=O` [Compound I-2493]: the concentration for half-maximal inhibition (IC50) came to 5 nM.

Take `CNCCCn1c(=O)[nH]/c(=N\c2ccc(OC(C)C)c(F)c2)n(Cc2ccc(Cl)cc2)c1=O` [Compound I-2316]: the half-maximal inhibitory concentration (IC50) came to 51 nM.

Consider `CCn1c(=O)[nH]/c(=N\c2ccc(Oc3ccncc3)cc2)n(Cc2ccc(C)cc2)c1=O` [Compound I-2573], for which the IC50 was 6 nM.

As for `CCCOc1ccc(/N=c2\[nH]c(=O)n(C[C@H](CC)C(=O)O)c(=O)n2Cc2ccc(C)cc2)cc1` [Compound I-0885], the half-maximal inhibitory concentration (IC50) worked out at 87 nM.

Regarding `Cc1cc(/N=c2\[nH]c(=O)n(CC3(C(=O)O)COC3)c(=O)n2Cc2ccc(Cl)cc2)ccc1OC(C)C` [Compound I-1481], the half-inhibitory concentration (IC50) is 39 nM.
